One compound from ChEMBL document CHEMBL1141280, “Hirtusneanoside, an unsymmetrical dimeric tetrahydroxanthone from the lichen Usnea hirta” (2007) can be followed below.

The structures appear in SMILES notation.

One assay relates to Bacillus subtilis. Nature of the assay: Antibacterial activity against Bacillus subtilis. The assay is classed as functional. The settings on record: read-out: LD50 (the source's name).
The test system of a further assay is Staphylococcus aureus. Nature of the assay: Antibacterial activity against Staphylococcus aureus. In kind it is functional. The settings on record: read-out: LD50 (the source's name).

`COC(=O)[C@@]12Oc3cc(C)c(-c4c(C)cc5c(c4O)C(=O)C4=C(O)C[C@@H](C)[C@@H](O)[C@@]4(CO[C@@H]4O[C@@H](C)[C@H](O)[C@@H](O)[C@H]4O)O5)c(O)c3C(=O)C1=C(O)[C@H](C)[C@@H](C)[C@@H]2O` [HIRTUSNEANOSIDE]: the values for the LC50 in the assay with Bacillus subtilis and with Staphylococcus aureus were 14 nM and 3.4 nM, respectively.
